Results: US10314806B2 (SICHUAN JIUZHANG BIOLOGICAL SCIENCE AND TECHNOLOGY CO., LTD., priority 2014, dated 2019)

How the values were obtained:
[1] = system: H22 liver cancer; assay: Inhibition of KM mice-transplanted tumor of H22 liver cancer; type: in vivo
Procedure: (1) Animal Kunming mice, half male and half female, body weight 16˜27 g.
Cell Lines H22 cell lines were mice liver cancer cells, and were subjected to suspension growth in RPMI-1640 media containing 10% calf serum, 100 U·ml^−1 penicillin, 100 μg·ml^−1 streptomycin, and cultured in an incubator at 37° C. under 5% CO2, followed by changing the medium and subculturing every two or three days.
(§1) Cell Culture H22 cells in exponential phase of growth were collected, centrifugated at 1000 rpm for 5 min, and washed twice. Viable cells were counted by trypan blue staining. The cells were quickly inoculated in abdominal cavity of KM mice, and after 7˜10 days, ascites were drawn and subcutaneously inoculated at the left forelimb armpit of mice at 0.2 ml/animal (containing about 2×10^7 cells). When tumor grew to 1 cm×1 cm×1 cm, mice were used in experiment. Mice tumors were aseptically stripped, and washed with Hank's solution thrice, to remove blood, fat and necrotic tissues. Tumors were cut to broken pieces of 1 mm×1 mm×1 mm, and washed with Hank's solution twice, to which physiological saline was added at a ratio of (1 g:3 ml), and then ground in a glass homogenizer and filtered by 80-100 mesh sieve to make a suspension of single cell. Viable cells were counted by trypan blue staining.
(§2) On the second day after inoculation, a dosage of 0.2 ml·10 g^−1 was administrated by intravenous injection (iv), once a day. When the average tumor weight in negative group was more than 1.0 g (tumor volume being about 0.5 cm^3), the experiment was stopped, and mice were sacrificed by cervical vertebrae removal and weighed. Tumors were stripped to calculate inhibitory rate.

[2] = system: EMT-6 breast cancer; assay: Inhibition of BABLc mice-transplanted tumor of EMT-6 breast cancer; type: in vivo; conditions: for Inhibitory rate / Tumor weight: 9 days
Procedure: (1) Animal BABLc mice, ♀, body weight 17˜21 g
Cell Lines EMT-6 cell lines were mice breast cancer cells, and grew adhering to the wall in RPMI-1640 complete media containing 10% calf serum, 1 mmol/L glutamine, 100 U·ml^−1 penicillin and 100 μg·ml^−1 streptomycin, and were cultured in an incubator at 37° C. under 5% CO2, followed by changing the medium and subculturing every two or three days.
as §1, with “Viable” for “Cell Culture H22 cells in exponential phase of growth were collected, centrifugated at 1000 rpm for 5 min, and washed twice. Viable”, “Cell suspension was” for “The cells were quickly inoculated in abdominal cavity of KM mice, and after 7˜10 days, ascites were drawn and”, “1×10^7 cells), and after” for “2×10^7 cells). When”
as §2, with “administrated to each group” for “administrated”, “intraperitoneal” for “intravenous”, “(ip) for successive 9 days,” for “(iv),”, “the” for “the average”, “g(tumor” for “g (tumor”

[3] = compared with the negative control group, obvious in the dosage groups of 10 mg/kg-60 mg/kg

O=C(/C=C/c1ccc(O)c(O)c1)O[C@@H]1C[C@](O)(C(=O)O)C[C@@H](O)[C@H]1O [Chlorogenic acid of the present invention]
Inhibitory rate ([1]; 1 mg·kg^−1 iv once a day): 8.8% | Tumor weight ([1]; 1 mg·kg^−1 iv once a day): 2.141 ± 0.333 g | Inhibitory rate ([1]; 5 mg·kg^−1 iv once a day): 24.7% | Tumor weight ([1]; 5 mg·kg^−1 iv once a day): 1.768 ± 0.667 g | Inhibitory rate ([1]; 10 mg·kg^−1 iv once a day): 46.3% | Tumor weight ([1]; 10 mg·kg^−1 iv once a day): 1.261 ± 0.388 g | Inhibitory rate ([1]; 20 mg·kg^−1 iv once a day): 54.8% | Inhibitory rate ([1]; 30 mg·kg^−1 iv once a day): 67.9% | Tumor weight ([1]; 30 mg·kg^−1 iv once a day): 0.754 ± 0.071 g | Inhibitory rate ([1]; 40 mg·kg^−1 iv once a day): 72.2% | Tumor weight ([1]; 40 mg·kg^−1 iv once a day): 0.653 ± 0.238 g | Inhibitory rate ([1]; 50 mg·kg^−1 iv once a day): 57.5% | Tumor weight ([1]; 50 mg·kg^−1 iv once a day): 0.998 ± 0.207 g | Inhibitory rate ([1]; 60 mg·kg^−1 iv once a day): 42.9% | Tumor weight ([1]; 60 mg·kg^−1 iv once a day): 1.341 ± 0.356 g | Inhibitory rate ([1]; 70 mg·kg^−1 iv once a day): 31.9% | Inhibitory rate ([1]; 80 mg·kg^−1 iv once a day): 24.1% | Tumor weight ([1]; 80 mg·kg^−1 iv once a day): 1.782 ± 0.122 g | Inhibitory rate ([1]; 90 mg·kg^−1 iv once a day): 16.7% | Tumor weight ([1]; 90 mg·kg^−1 iv once a day): 1.956 ± 0.581 g | Inhibitory rate ([1]; 100 mg·kg^−1 iv once a day): 11.5% | Tumor weight ([1]; 100 mg·kg^−1 iv once a day): 2.078 ± 0.326 g | inhibitory action on KM mice-transplanted tumor of H22 liver cancer [1, 3]: obviously inhibitory action | Inhibitory rate ([2]; 1 mg·kg^−1 ip once a day): 26.40% | Tumor weight ([2]; 1 mg·kg^−1 ip once a day): 0.987 ± 0.154 g | Inhibitory rate ([2]; 5 mg·kg^−1 ip once a day): 41.16% | Tumor weight ([2]; 5 mg·kg^−1 ip once a day): 0.789 ± 0.087 g | Inhibitory rate ([2]; 10 mg·kg^−1 ip once a day): 48.55% | Tumor weight ([2]; 10 mg·kg^−1 ip once a day): 0.690 ± 0.188 g | Inhibitory rate ([2]; 20 mg·kg^−1 ip once a day): 69.95% | Inhibitory rate ([2]; 30 mg·kg^−1 ip once a day): 68.01% | Inhibitory rate ([2]; 40 mg·kg^−1 ip once a day): 66.37% | Tumor weight ([2]; 40 mg·kg^−1 ip once a day): 0.451 ± 0.097 g | Inhibitory rate ([2]; 50 mg·kg^−1 ip once a day): 60.55% | Tumor weight ([2]; 50 mg·kg^−1 ip once a day): 0.529 ± 0.168 g | Inhibitory rate ([2]; 60 mg·kg^−1 ip once a day): 49.22% | Tumor weight ([2]; 60 mg·kg^−1 ip once a day): 0.681 ± 0.156 g | Inhibitory rate ([2]; 70 mg·kg^−1 ip once a day): 47.95% | Tumor weight ([2]; 70 mg·kg^−1 ip once a day): 0.698 ± 0.112 g | Inhibitory rate ([2]; 80 mg·kg^−1 ip once a day): 41.16% | Tumor weight ([2]; 80 mg·kg^−1 ip once a day): 0.789 ± 0.087 g | Inhibitory rate ([2]; 90 mg·kg^−1 ip once a day): 35.94% | Tumor weight ([2]; 90 mg·kg^−1 ip once a day): 0.859 ± 0.0754 g | Inhibitory rate ([2]; 100 mg·kg^−1 ip once a day): 25.80% | Tumor weight ([2]; 100 mg·kg^−1 ip once a day): 0.995 ± 0.0256 g | inhibitory action on BABLc mice-transplanted tumor of EMT-6 [2, 3]: obviously inhibitory action

O=C(/C=C/c1ccc(O)c(O)c1)O[C@@H]1C[C@](O)(C(=O)O)C[C@@H](O)[C@H]1O [Commercially available chlorogenic acid, chlorogenic acid, reference compound]
Inhibitory rate ([1]; 1 mg·kg^−1 iv once a day): 5.1% | Tumor weight ([1]; 1 mg·kg^−1 iv once a day): 2.228 ± 0.538 g | Inhibitory rate ([1]; 5 mg·kg^−1 iv once a day): 17.4% | Tumor weight ([1]; 5 mg·kg^−1 iv once a day): 1.939 ± 0.357 g | Inhibitory rate ([1]; 10 mg·kg^−1 iv once a day, listed as Commercially availaavailable chlorogenic): 32.6% | Inhibitory rate ([1]; 20 mg·kg^−1 iv once a day, listed as Commercially availaavailable chlorogenic): 31.8% | Inhibitory rate ([1]; 30 mg·kg^−1 iv once a day): 31.9% | Inhibitory rate ([1]; 40 mg·kg^−1 iv once a day): 28.1% | Inhibitory rate ([1]; 50 mg·kg^−1 iv once a day): 23.4% | Tumor weight ([1]; 50 mg·kg^−1 iv once a day): 1.799 ± 0.462 g | Inhibitory rate ([1]; 60 mg·kg^−1 iv once a day): 21.3% | Tumor weight ([1]; 60 mg·kg^−1 iv once a day): 1.848 ± 0.741 g | Inhibitory rate ([1]; 70 mg·kg^−1 iv once a day): 14.6% | Tumor weight ([1]; 70 mg·kg^−1 iv once a day): 2.005 ± 0.345 g | Inhibitory rate ([1]; 80 mg·kg^−1 iv once a day): 13.7% | Tumor weight ([1]; 80 mg·kg^−1 iv once a day): 2.026 ± 0.611 g | Inhibitory rate ([1]; 90 mg·kg^−1 iv once a day): 9.8% | Tumor weight ([1]; 90 mg·kg^−1 iv once a day): 2.118 ± 0.557 g | Inhibitory rate ([1]; 100 mg·kg^−1 iv once a day): 7.2% | Tumor weight ([1]; 100 mg·kg^−1 iv once a day): 2.179 ± 0.341 g | Inhibitory rate ([2]; 1 mg·kg^−1 ip once a day): 3.13% | Tumor weight ([2]; 1 mg·kg^−1 ip once a day): 1.299 ± 0.253 g | Inhibitory rate ([2]; 5 mg·kg^−1 ip once a day): 4.18% | Tumor weight ([2]; 5 mg·kg^−1 ip once a day): 1.285 ± 0.324 g | Inhibitory rate ([2]; 10 mg·kg^−1 ip once a day): 5.00% | Tumor weight ([2]; 10 mg·kg^−1 ip once a day): 1.274 ± 0.854 g | Inhibitory rate ([2]; 20 mg·kg^−1 ip once a day): 10.44% | Inhibitory rate ([2]; 30 mg·kg^−1 ip once a day): 11.63% | Inhibitory rate ([2]; 40 mg·kg^−1 ip once a day): 16.11% | Inhibitory rate ([2]; 50 mg·kg^−1 ip once a day): 16.85% | Inhibitory rate ([2]; 60 mg·kg^−1 ip once a day): 24.76% | Tumor weight ([2]; 60 mg·kg^−1 ip once a day): 1.009 ± 0.123 g | Inhibitory rate ([2]; 70 mg·kg^−1 ip once a day): 6.49% | Tumor weight ([2]; 70 mg·kg^−1 ip once a day): 1.254 ± 0.514 g | Inhibitory rate ([2]; 80 mg·kg^−1 ip once a day): 4.62% | Tumor weight ([2]; 80 mg·kg^−1 ip once a day): 1.279 ± 0143 g | Inhibitory rate ([2]; 90 mg·kg^−1 ip once a day): 3.21% | Tumor weight ([2]; 90 mg·kg^−1 ip once a day): 1.298 ± 0.423 g | Inhibitory rate ([2]; 100 mg·kg^−1 ip once a day): 2.16% | Tumor weight ([2]; 100 mg·kg^−1 ip once a day): 1.312 ± 0.087 g
